The test system of series [1] is blood lactate. As to the kind of experiment: Blood lactate concentration, anesthetized Wistar rats, IV infusion. The format is in vivo, rat. The procedure: This study was performed over multiple experiments using a total of 48 adult male Wistar rats. […] Compounds were infused via an IV catheter at six sequentially increasing doses. A group of vehicle-administered animals received vehicle throughout the study and data were reported from intervals timed analogously with the dose-response in compound 1-administered animals.
(§1) On the day of experimentation animals were anesthetized and instrumented. A tracheostomy was performed to allow assisted respiration and three catheters were placed. Laser Doppler probes were positioned on a shaved portion of the animal's lower abdominal skin for blood-flow measurements. Ventilation was initiated, and baseline readings for the primary parameter of skin blood flow (SBF) were recorded. Readings for the secondary parameters were also recorded: (1) blood lactate concentration, (2) mean arterial pressure (MAP), and (3) blood pH. Data collection was performed continuously for SBF and MAP using NOTOCORD-hem™ (Instem), and blood samples were taken at each compound dose and immediately analyzed using an i-STAT® meter.

Series [2] addresses T1, rOTR (Rattus norvegicus, UniProt P70536).
T1 construct: expressed in transfected cells
T1 sequence (P70536 1-388): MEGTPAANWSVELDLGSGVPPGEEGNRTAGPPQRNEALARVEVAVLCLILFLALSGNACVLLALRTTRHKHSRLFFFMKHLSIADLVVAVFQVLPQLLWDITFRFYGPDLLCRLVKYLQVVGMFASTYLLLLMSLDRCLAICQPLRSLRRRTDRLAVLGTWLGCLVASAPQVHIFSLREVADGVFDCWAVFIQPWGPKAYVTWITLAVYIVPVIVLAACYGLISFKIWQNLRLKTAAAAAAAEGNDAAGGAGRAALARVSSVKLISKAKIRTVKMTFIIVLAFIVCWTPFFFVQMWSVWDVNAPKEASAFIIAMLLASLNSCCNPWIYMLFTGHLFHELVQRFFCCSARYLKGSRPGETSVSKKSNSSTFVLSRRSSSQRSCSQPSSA
Briefly: Luciferase reporter gene assay, rat OT. In kind it is cell-based. To be noted: read-out: % MPE. The method, then: (§2) Cell Lines. Studies were conducted with cell lines expressing rat (r) or human (h) Via, V1b, V2, or OT receptors. For the experiments with human receptors, human embryonic kidney (HEK)-flp-in cells stably expressing the lacZ-Zeocin™ fusion gene were used for expression of hV1a and hV1b. These cells were designed for use with the Flp-In™ expression vector containing the gene of interest (here hV1a or hV1b) and the Flp recombinase expression plasmid, pOG44. For hV2 and hOTR, HEK-293 cells transiently expressing hV2 were used.
(§3) Functional Cell-Based Assays.

Series [3] relates to skin blood flow (SBF). As to the kind of experiment: Skin blood flow (SBF), laser Doppler, anesthetized Wistar rats, IV infusion. The format is in vivo, rat. The method, then:
This study was performed over multiple experiments using a total of 48 adult male Wistar rats. […] Compounds were infused via an IV catheter at six sequentially increasing doses.
as §1
After the final dose administration, animals were euthanized and a final SBF measurement was recorded to detect any signal from the flow probe after the animal's heart stopped beating to control for a signal not attributed to blood flow. Animal body temperature, pulse, and ventilation adequacy were monitored throughout the procedure.

Series [4] has as its target T2, rV2 receptor (Rattus norvegicus, UniProt Q00788).
T2 construct: expressed in transfected cells; host or cells: HEK-293 cells (ATCC), transient
As to the kind of experiment: Luciferase reporter gene assay, rat V2. The format is cell-based. The following applies: read-out: % MPE. The procedure: as §2, §3
For orientation: A reporter such as luciferase makes a cellular process visible.

For series [5], the system named is V1a, V1b, and V2 receptors. The following applies: cited from earlier work.
For series [6], the system named is methionine/choline-deficient (MCD) diet rats. As to the kind of experiment: MAP / ΔMAP in methionine/choline-deficient (MCD) diet rats. In kind it is in vivo, rat. To be noted: for Δ MAP (mean): 100 μg/kg, IA, MCD diet rats. The method, then: The terlipressin dose was 100 μg/kg.
Data were evaluated as change […] from baseline.

Series [7] deals with mean arterial pressure (MAP). Briefly: Telemetry: ΔMAP in cynomolgus monkeys, Compound 1 (SC) versus terlipressin (IV). In kind it is in vivo, cynomolgus monkey. The procedure:
The in-life portion of the study was performed over multiple dosing sessions using six non-naive adult male cynomolgus monkeys. Animals were previously (3-4 weeks before study start) instrumented with indwelling pressure telemetry devices and trained to be restrained in chairs. Animals had access to food and drinking water ad libitum.
Stock solutions were diluted in saline on the day of administration. Animals with indwelling pressure telemetry devices were trained to be restrained in chairs for 8-h periods.
On the day of administration, animals were restrained, and telemetric measurements were collected continuously starting ≥2 h before administration. Baseline values of arterial pressure (diastolic and systolic), heart rate, and body temperature were obtained.
The data reported herein were collected over 19 dosing sessions of four animals each, using a total of six monkeys. Animals were repeat dosed in a crossover design with at least one animal receiving vehicle for each round; the animal receiving vehicle was varied between rounds. A 48- to 72-h washout period was used between dosing sessions. Animals were observed by camera for ~1 h before dosing (covering the baseline period) and up to 3 h after dosing.

Series [8] relates to methionine/choline-deficient (MCD) diet rats. Briefly: ΔPP in methionine/choline-deficient (MCD) diet rats. The format is in vivo, rat. To be noted: 100 μg/kg, IA, MCD diet rats.

The source of these data is patent US20260315609A1, “MIXED VASOPRESSIN RECEPTOR AGONIST-ANTAGONIST FOR TREATING END-STAGE LIVER DISEASE AND COMPLICATIONS ASSOCIATED THEREOF” (FERRING B.V., priority 2022, published 2026).

Positions of bridges follow the written chain, without caps; N, C: chain ends. Residues, ends and D or L forms follow the SMILES beside them. Bounds are passed on as bounds.

T2 sequence (Q00788 whole entry): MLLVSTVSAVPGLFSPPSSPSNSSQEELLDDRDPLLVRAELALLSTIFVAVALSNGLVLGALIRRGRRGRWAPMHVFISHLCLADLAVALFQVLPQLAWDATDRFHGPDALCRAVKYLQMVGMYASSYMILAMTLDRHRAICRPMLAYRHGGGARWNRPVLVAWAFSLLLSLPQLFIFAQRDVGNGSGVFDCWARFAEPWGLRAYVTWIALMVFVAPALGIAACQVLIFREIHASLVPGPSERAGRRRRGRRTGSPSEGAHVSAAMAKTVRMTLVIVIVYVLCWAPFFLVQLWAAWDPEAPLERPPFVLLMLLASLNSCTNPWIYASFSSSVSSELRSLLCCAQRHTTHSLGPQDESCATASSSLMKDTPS

For the compound `NC(=O)CC[C@@H]1NC(=O)[C@H](Cc2ccccc2)NC(=O)[C@H](Cc2ccc(O)cc2)NC(=O)[C@@H](N)CSSC[C@@H](C(=O)N2CCC[C@H]2C(=O)N[C@@H](CCCN=C(N)N)C(=O)NCC(N)=O)NC(=O)[C@H](CC(N)=O)NC1=O` [AVP, arginine vasopressin, reference compound], the blood lactate concentration in series [1] (3 pmoL/kg/min IV) turned out to be 1.34 mM. This compound yielded a blood lactate concentration in series [1] (600 pmoL/kg/min IV) of 4.27 mM. In addition, the “increase in blood lactate levels” value in series [1] (IV) is given as at least 2 fold. Further, in series [1] (IV, up to maximum dose tested), the “effect on blood lactate concentration” value was “significantly elevated”. The Emax in series [2] is 82%. Also, in series [3], the “SBF ED50” value was determined as 12.6 pmol/kg/min; the “decrease in skin blood flow, approximate maximum” value is “about 90%”; the “greatest percent change from baseline in skin flow” value is given as −89.5%. The Emax in series [4] is 98%.

For `NCCCC[C@H](NC(=O)[C@@H]1CCCN1C(=O)[C@@H]1CSSC[C@H](N)C(=O)N[C@@H](Cc2ccc(O)cc2)C(=O)N[C@@H](Cc2ccccc2)C(=O)N[C@@H](CCC(N)=O)C(=O)N[C@@H](CC(N)=O)C(=O)N1)C(=O)NCC(N)=O` [Lysine vasopressin (LVP), Lysine vasopressin], the receptor agonism type entry in series [5] (V1a, V1b, and V2 receptors) is reported as “full agonist”.

On to `NCCCC[C@H](NC(=O)[C@@H]1CCCN1C(=O)[C@@H]1CSSC[C@H](NC(=O)CNC(=O)CNC(=O)CN)C(=O)N[C@@H](Cc2ccc(O)cc2)C(=O)N[C@@H](Cc2ccccc2)C(=O)N[C@@H](CCC(N)=O)C(=O)N[C@@H](CC(N)=O)C(=O)N1)C(=O)NCC(N)=O` [Terlipressin, reference compound] (H-GGGCYFQNCPKG-NH2; disulfide 4-9), for which the “Δ MAP (mean)” value in series [6] (0 min) is listed as 0.0 mmHg; in series [6] (1 min), 6.1 mmHg; in series [6] (10 min), 32.0 mmHg; in series [6] (90 min) it was 5.2 mmHg. Besides, the “rapid increase in MAP, up to” value in series [6] (intra-arterial, FIG. 34) is given as “about 35 mmHg”. For the same compound, the serious adverse events result in series [5] (gastrointestinal disorders, sepsis, respiratory failure) is listed as “associated with serious adverse events”. The “effect on ascites formation” value in series [5] (non-selective full agonist, continuous i.v. infusion) was “reduced ascites formation”. Further, the short-term mortality entry in series [5] (plus albumin, HRS-AKI, versus placebo) is given as “reduces short-term mortality”. The “average increase in MAP, 30 min to 5 h” value is 6.0 mmHg in series [7] (IV 0.03 mg/kg), 5.8 mmHg in series [7] (IV 0.09 mg/kg), 14.6 mmHg in series [7] (IV 0.17 mg/kg) and 14.7 mmHg in series [7] (IV 0.34 mg/kg). The “maximum MAP values (increase from baseline)” value in series [7] (IV 0.03 mg/kg (vehicle 22.2)) is given as 29.6±3.6 mmHg; in series [7] (IV 0.09 mg/kg (vehicle 22.2)), 29.9±6.2 mmHg; in series [7] (IV 0.17 mg/kg (vehicle 22.2)) it was 50.8±5.6 mmHg; in series [7] (IV 0.34 mg/kg (vehicle 22.2)), 41.2±7.5 mmHg. Besides, the “time of maximum ΔMAP” value in series [7] (IV, all groups) fell in the range of 5 to 30 min. Besides, the “ΔMAP by 150 min” value in series [7] (IV, all groups) was “negligible”. Besides, the “Δ PP (mean)” value was 0.0 mmHg in series [8] (0 min); −1.5 mmHg in series [8] (1 min); −2.1 mmHg in series [8] (2 min); −2.3 mmHg in series [8] (3 min); −2.4 mmHg in series [8] (5 min); −2.5 mmHg in series [8] (7 min). For the same compound, the “Δ PP (mean)” value in series [8] (10 min) is given as −2.4 mmHg; in series [8] (15 min) it was −2.5 mmHg; in series [8] (20 min), −2.6 mmHg; in series [8] (30 min) it was −2.5 mmHg; in series [8] (60 min) it was −2.8 mmHg; in series [8] (90 min), −0.8 mmHg.
